The results in this text go back to US20240408112A1, “METHOD FOR PREVENTING OR TREATING PULMONARY ARTERIAL HYPERTENSION BY USING 7-DEHYDROCHOLESTEROLS OR SALTS, OXIDES, METABOLITES, OR DERIVATIVES THEREOF” (EXCELSIOR PHARMATECH LABS., priority 2023, published 2024).

Data set [1] deals with PAH rat pulmonary artery smooth muscle cells (rPASMC MCT). Nature of the data set: BrdU cell proliferation assay, 10% FBS, rPASMC MCT. The data set is classed as cell-based. The method, then:
(§1) BrdU (5-bromo-2-deoxyuridine) cell proliferation assay (BrdU assay)
(§2) A 48-well plate was used, and 1.5×10^4 cells were implanted in each well. After 24 hours, the medium was changed to serum-free culture medium and synchronized for 24 hours. A 2-fold concentration of the compound in serum-free culture medium is prepared and the cells were pretreated for 1 hour. Then, the same volume of culture medium containing 20% fetal bovine serum (FBS) was added to dilute the compound. The final concentration was 10% FBS culture medium and 1 times the concentration of the compound. In the experimental group that added TGF-β, the same volume of TGF-β culture medium containing 10 ng/mL was added, with a final concentration of 5 ng/mL TGF-β and 1 times the concentration of the compound, and in the experimental group added with TGF-β, the entire process was conducted in culture medium containing 0.1% serum. Then, BrdU reagent was added about 6 hours later, and the cells were collected the next day for enzyme-linked immunosorbent assay (ELISA) analysis, the compound treatment time was about 24 hours, and the BrdU treatment time was about 18 hours.
(§3) Five compounds to be tested were screened by cell survival assay (MTT assay) and BrdU (5-bromo-2-deoxyuridine) cell proliferation assay, and the information of these compounds was listed in Table 1 below. Tables 2 and 3 respectively listed the growth inhibitions of on human pulmonary artery endothelial cells (hPAEC), human pulmonary artery smooth muscle cells (hPASMC), normal rat pulmonary artery smooth muscle cells (rPASMC, as the control group, represented by “CON”), and rat pulmonary artery smooth muscle cells (represented by “MCT”), by the five compounds to be tested under the conditions of 10% FBS, 0.1% FBS and 100 pM TGF-β.

The test system of data set [2] is monocrotaline induced pulmonary hypertension rat. The data set is described as follows: Monocrotaline-induced pulmonary arterial hypertension rat model, Example 2 (7-DHC, 042). The data set is classed as in vivo. The settings on record: for Arterial gas analysis pH value, PaO2 and PaCO2, in words: between groups CON, MCT and treated; for Base excess (BE) value: MCT group −5.5, normal −2 to +2. An excerpt:
Pulmonary arterial hypertension animal experimental model
The present disclosure utilizes injection of monocrotaline to induce symptoms of pulmonary arterial hypertension in rats to establish a pulmonary arterial hypertension animal experimental model suitable for screening test drugs.
The diagnostic method of clinical pulmonary arterial hypertension standards is right heart catheterization, which is defined as mean pulmonary arterial pressure (mPAP) greater than or equal to 20 mmHg. The diagnostic criteria for pulmonary arterial hypertension, in addition to an increase in mean pulmonary arterial pressure, need to be combined with pulmonary vascular resistance (PVR) greater than 3 Wood unit. The right ventricle pressure (RVP) and systemic mean blood pressure (mbp) in rats with pulmonary arterial hypertension were measured by Millar Model PCU200 pressure system, and the heart rate (HR) was also monitored at the same time. After measuring the hemodynamic data, the arterial blood was extracted from the carotid artery of the pulmonary arterial hypertension rat, and the Abbott blood oximeter (i-STAT) combined with Abbott's special chip cartridge (i-STAT Cartridge G3+) was used to measure arterial gas analysis data such as pH, PaO2, PaCO2, HCO3 and base excess (BE) value in quantitative whole blood samples. The normal pH value is between 7.35 and 7.45, and the pH value indicates whether the experimental animal has the condition of acidemia, alkalemia, acidosis or alkalosis. The normal value of PaO2 is between 80 and 100 mmHg, which reflects the effectiveness of gas exchange (ventilation/perfusion). The normal value of PaCO2 is between 35 and 45 (such as 38 and 42) mmHg, which can evaluate the effectiveness of alveolar ventilation. The acid produced by food, tissue decomposition, inflammation and hypoxia rely on the lungs to excrete volatile acid CO2 (short-term) and the bicarbonate (HCO3^−) produced by the kidneys (long-term) to neutralize non-volatile acids, while the normal value of bicarbonate hydrogen radical (HCO3^−) is between 22 and 26 meq/L. BE is the base excess value, its normal value ranges from −2 to +2, the negative value represents the degree of alkali ion deficiency in the blood, a negative BE value (−) that is too high indicates metabolic acidosis, and a positive value (+) that is too high is metabolic alkalosis. At the end of the experiment, the rats were sacrificed and their hearts were removed and the left and right ventricles were separated and weighed (RV)/(S)+(LV).
Monocrotaline (MCT) was utilized to induce pulmonary hypertension rat animal model, the TGF-β receptor inhibitor 7-DHC (039) and compound No. 042 were tested via intraperitoneal (IP) administration, and the physiological parameters of the animals were collected, wherein includes measuring right ventricle pressure, systemic arterial pressure, heartbeat and right ventricle hypertrophy, as well as observing and analyzing the pulmonary artery thickening and blood oxygenation levels through pathological sections of lung tissue. Specifically, 7-DHC (039) was divided into two groups with a dosage of 10 mg/kg or 20 mg/kg, the dosage of group 042 was 50 mg/kg, each dosage group has 3 rats (n=3), while the control group (CON) and the pulmonary arterial hypertension rat group (MCT) had 6 rats (n=6) respectively.

In data set [3] the test system is PAH rat pulmonary artery smooth muscle cells (rPASMC MCT). Nature of the data set: BrdU cell proliferation assay, 0.1% FBS, 100 pM TGF-β, rPASMC MCT. The data set is classed as cell-based. The note with it: 100 pM TGF-β. The protocol: as §1, §2, §3
In data set [4] the test system is normal rat pulmonary artery smooth muscle cells (rPASMC CON). Nature of the data set: BrdU cell proliferation assay, 0.1% FBS, 100 pM TGF-β, rPASMC CON. The data set is classed as cell-based. The note with it: 100 pM TGF-β. The method, then: as §1
as §2, with “with a final concentration of 5 ng/mL TGF-β and 1 times the concentration” left out
Five compounds to be tested were screened by cell survival assay (MTT assay) and BrdU (5-bromo-2-deoxyuridine) cell proliferation assay, and the information of these compounds was listed in Table 1 below.

Data set [5] relates to human pulmonary artery endothelial cells (hPAEC). Nature of the data set: BrdU cell proliferation assay, 0.1% FBS, 100 pM TGF-β, hPAEC. The data set is classed as cell-based. The settings on record: hPAEC, 100 pM TGF-β, 0.1% FBS. The protocol:
as §1, §2, §3

On to `CC(C)CCCC(C)C1CCC2C3=CC=C4CC(O)CCC4(C)C3CCC21C` (stereo not shown) [Code 039, 7-DHC], for which the EC50 in data set [1] (Rattus norvegicus, read-out: EC50 (concentration for 50% of maximal effect)) was 37 µM; in data set [3] (Rattus norvegicus, MCT (PAH rPASMC), 0.1% FBS, read-out: EC50), 20 µM; in data set [4] (Rattus norvegicus, CON (normal rPASMC), 0.1% FBS, read-out: EC50), 30 µM; in data set [5] (Homo sapiens, Endothelial cell, read-out: EC50) it was 23 µM. The “Inhibition of cell growth (in words)” value is recorded as “significant inhibitory effects” in data set [1] (rPASMC MCT4, 10% FBS, FIG. 2); “significant inhibitory effects” in data set [3] (rPASMC MCT2, 0.1% FBS, 25 μM, FIG. 3); “significant inhibitory effects” in data set [4] (rPASMC CON3, 0.1% FBS, 25 μM, FIG. 3); “inhibition of cell growth” in data set [5] (25 μM, FIG. 3). Besides, the “Arterial gas analysis pH value, PaO2 and PaCO2, in words” value in data set [2] (10 mg/kg IP) and in data set [2] (20 mg/kg IP) was “did not show any significant differences” throughout. For the same compound, the “Thickness of the pulmonary artery blood vessels (medial wall thickness), in words” value in data set [2] (10 mg/kg IP, p<0.001, vs MCT rats (exceeded 55%)) is given as “significantly reduced”. Besides, the “Base excess (BE) value” is −2 in data set [2] (10 mg/kg IP) and 0 in data set [2] (20 mg/kg IP). The Animal survival status entry in data set [2] (20 mg/kg IP, 23rd day after monocrotaline induction) was “had died”. Also, the “Systemic blood pressure and heartbeat, in words” value in data set [2] (10 or 20 mg/kg IP) was “did not reduce”. For the same compound, the “Right ventricle pressure (RVP), in words” value in data set [2] (10 or 20 mg/kg IP, vs MCT rats (28 mmHg)) was “can be reduced”.
